Experimental data taken from article doi:10.64898/2025.12.18.695269, “Structural Basis of TACO1-Mediated Efficient Mitochondrial Translation” (bioRxiv, 2025).

Key:
[1] = target: T1, TACO1 (Homo sapiens, UniProt Q9BSH4); test: competition with BODIPY-FL-GTPγS fluorescence binding; conditions: pre-incubation with GMPPNP before BODIPY-FL-GTPγS; competitive
T1 construct: recombinant TACO1

[2] = target: T1, TACO1; test: fluorescence increase of BODIPY-labelled nucleotide, saturation fit; assay type: binding; conditions: labelled compound; 500 nM TACO1, 0-30 μM ligand, 10 min

With `Nc1nc2c(ncn2[C@@H]2O[C@H](COP(=O)(O)OP(=O)(O)NP(=O)(O)O)[C@@H](O)[C@H]2O)c(=O)[nH]1` [GMPPNP] the “competition with BODIPY-FL-GTPγS fluorescence binding” value [1] was “This effect was abolished by pre-incubation with the non-hydrolyzable GTP analog GMPPNP”.
Work on BODIPY-FL-GTPγS yielded a Kd [2] of 25 µM.
